Laboratory results taken from paper PMC10022191, “Safety, tolerability, pharmacokinetics, and antiviral activity of the novel core protein allosteric modulator ZM-H1505R (Canocapavir) in chronic hepatitis B patients: a randomized multiple-dose escalation trial” (BMC Medicine, 2023).
“Also recorded” adds a separate entry of the source.

Test: phase 1b trial: adverse reactions and tolerability in CHB patients
Assay type: in vivo, human
Procedure: This was a randomized, open-label, placebo-controlled, phase 1b study (Clinical Trial Registration Number: NCT05470829; Chinese Clinical Trial Registration Number: CTR20210686), which was conducted at the Phase I Clinical Research Center, The First Hospital of Jilin University (Jilin, China), during the period from May to November of 2021. In order to minimize the safety risk of Canocapavir, an adaptive ascending dosing strategy was adopted for Canocapavir treatment in this study. The second and third assigned doses were initiated only after the safety data from the previous dose was reviewed and determined to be safe by the Principal Investigator and the Sponsor on day 8 postdosing (post drug administration days). Canocapavir was administered at the Clinical Research Center on days 1–8 and day 28 and at home on days 9–27 under the same conditions (fixed administration time and fasting condition). Patients were required to visit the facility for follow-up on days 15, 22, 27, 43 ± 1, and 57 ± 2 postdosing. The study protocol and informed consent forms were prepared according to the principles of the Declaration of Helsinki. The study protocol was approved by the Institutional Review Board of the First Hospital of Jilin University (approval number: 20Y201-006). All recruited patients provided written informed consent before participating in any study-related procedures.
A total of 30 CHB patients were recruited in this study and were randomly assigned into three cohorts (N = 10, each). In these three cohorts, the patients (in a ratio of 4:1) received 50, 100, or 200 mg of Canocapavir or placebo once a day for 28 consecutive days under fasting conditions, followed by a 28-day follow-up (Fig. 1). The patients, care providers, and those assessing outcomes were blinded during the study. This random process was completed in an electronic data capture system, and the details are shown in Additional file 1.
To examine possible adverse events (AEs) and adverse reactions (an adverse event is definitely, probably, or possibly related to the drug) in this study, the recruited patients underwent regular clinical laboratory testing, 12-lead electrocardiograms, examination of vital signs, abdominal ultrasound, and regular physical examinations, using the baseline data as a control. The severity of AEs and laboratory abnormalities were graded according to the Common Terminology Criteria for Adverse Events (CTCAE), version 5.0, which defines toxicity criteria. The AEs were coded using the Medical Dictionary for Regulatory Activities, version 24.1 (McLean, VA, USA).

## O=C1CO[C@H](c2cn(-c3ccc(Br)cc3)nc2-c2ccc(F)cc2)N1CCc1ccc2[nH]c(=O)[nH]c2c1 [Canocapavir]
100 mg q.d., 28 days
  Increased aspartate aminotransferase, cases: 2 case
  Increased aspartate aminotransferase, grade I, number of subjects: 2 n
  Increased aspartate aminotransferase, grade I, percent of subjects: 25.00%
  Increased aspartate aminotransferase, grade II, number of subjects: 0 n
  Increased aspartate aminotransferase, grade II, percent of subjects: 0%
  Increased aspartate aminotransferase, number of subjects (%): 2 (25) n (%)
  Increased bilirubin, cases: 0 case
  Increased bilirubin, grade I, number of subjects: 0 n
  Increased bilirubin, grade I, percent of subjects: 0%
  Increased bilirubin, number of subjects (%): 0 (0) n (%)
  Increased creatinine, cases: 0 case
  Increased creatinine, grade I, number of subjects: 0 n
  Increased creatinine, grade I, percent of subjects: 0%
  Increased creatinine, number of subjects (%): 0 (0) n (%)
  Increased γ-glutamyltransferase, cases: 1 case
  Increased γ-glutamyltransferase, grade I, number of subjects: 1 n
  Increased γ-glutamyltransferase, grade I, percent of subjects: 12.50%
  Increased γ-glutamyltransferase, number of subjects (%): 1 (12.5) n (%)
  Rash, cases: 1 case
  Rash, grade I, number of subjects: 1 n
  Rash, grade I, percent of subjects: 12.50%
  Rash, number of subjects (%): 1 (12.5) n (%)
  Total adverse reactions, cases: 10 case
  Total adverse reactions, number of subjects (%): 5 (62.5) n (%)
100 mg q.d., day 15, baseline 144.9 U/L
  maximum ALT level, patient E3010: 385.4 U/L
200 mg q.d., 28 days
  Adverse reactions, grade I, number of subjects: 3 n
  Adverse reactions, grade I, percent of subjects: 37.50%
  Adverse reactions, grade II, number of subjects: 0 n
  Adverse reactions, grade II, percent of subjects: 0%
  Adverse reactions, grade III, number of subjects: 1 n
  Adverse reactions, grade III, percent of subjects: 12.50%
  Adverse reactions, total (all grades), number of subjects: 4 n
  Adverse reactions, total (all grades), percent of subjects: 50.0%
  Decreased neutrophil count, cases: 0 case
  Decreased neutrophil count, grade II, number of subjects: 0 n
  Decreased neutrophil count, grade II, percent of subjects: 0%
  Decreased neutrophil count, grade III, number of subjects: 0 n
  Decreased neutrophil count, grade III, percent of subjects: 0%
  Decreased neutrophil count, number of subjects (%): 0 (0) n (%)
  Decreased platelet count, cases: 0 case
  Decreased platelet count, grade I, number of subjects: 0 n
  Decreased platelet count, grade I, percent of subjects: 0%
  Decreased platelet count, number of subjects (%): 0 (0) n (%)
  Decreased serum phosphorus, cases: 1 case
  Decreased serum phosphorus, grade I, number of subjects: 1 n
  Decreased serum phosphorus, grade I, percent of subjects: 12.50%
  Decreased serum phosphorus, number of subjects (%): 1 (12.5) n (%)
  Decreased white blood cell count, cases: 0 case
  Decreased white blood cell count, grade II, number of subjects: 0 n
  Decreased white blood cell count, grade II, percent of subjects: 0%
  Decreased white blood cell count, number of subjects (%): 0 (0) n (%)
  Hypertriglyceridemia, cases: 2 case
  Hypertriglyceridemia, grade III, percent of subjects: 12.50%
  Hypertriglyceridemia, number of subjects (%): 1 (12.5) n (%)
  Increased alanine aminotransferase, cases: 3 case
  Increased alanine aminotransferase, grade I, number of subjects: 3 n
  Increased alanine aminotransferase, grade I, percent of subjects: 37.50%
  Increased alanine aminotransferase, grade II, number of subjects: 0 n
  Increased alanine aminotransferase, grade II, percent of subjects: 0%
  Increased alanine aminotransferase, number of subjects (%): 3 (37.5) n (%)
  Increased aspartate aminotransferase, cases: 1 case
  Increased aspartate aminotransferase, grade I, number of subjects: 1 n
  Increased aspartate aminotransferase, grade I, percent of subjects: 12.50%
  Increased aspartate aminotransferase, grade II, number of subjects: 0 n
  Increased aspartate aminotransferase, grade II, percent of subjects: 0%
  Increased aspartate aminotransferase, number of subjects (%): 1 (12.5) n (%)
  Increased bilirubin, cases: 1 case
  Increased bilirubin, grade I, number of subjects: 1 n
  Increased bilirubin, grade I, percent of subjects: 12.50%
  Increased bilirubin, number of subjects (%): 1 (12.5) n (%)
  Increased creatinine, cases: 0 case
  Increased creatinine, grade I, number of subjects: 0 n
  Increased creatinine, grade I, percent of subjects: 0%
  Increased creatinine, number of subjects (%): 0 (0) n (%)
  Increased γ-glutamyltransferase, cases: 0 case
  Increased γ-glutamyltransferase, grade I, number of subjects: 0 n
  Increased γ-glutamyltransferase, grade I, percent of subjects: 0%
  Increased γ-glutamyltransferase, number of subjects (%): 0 (0) n (%)
  Rash, cases: 0 case
  Rash, grade I, number of subjects: 0 n
  Rash, grade I, percent of subjects: 0%
  Rash, number of subjects (%): 0 (0) n (%)
  Total adverse reactions, cases: 8 case
  Total adverse reactions, number of subjects (%): 4 (50) n (%)
50–200 mg q.d.
  relation of incidence of adverse reactions to dose: not significantly correlated to its increased dose
50–200 mg q.d., 28 days
  safety and tolerability: well tolerated; also recorded: safe and tolerated
  serious adverse events: no serious adverse events; also recorded: No serious AE
  withdrawal from the study: no patients withdrew
Across dose cohorts
  patients with a grade I adverse reaction (elevation of ALT or AST): 12.5–37.5%
All doses, 24 patients
  cases of AEs in the Canocapavir cohort: 38 cases
  cases of adverse reactions in the Canocapavir cohort: 24 cases
  patients with AEs in the Canocapavir cohort: 75%
  patients with adverse reactions in the Canocapavir cohort: 50%
